# Values quoted from earlier work in patent US5476644A, “Cyclic triamine chelating agents” (Sterling Winthrop Inc., priority 1994, dated 1995).
# Conditions: background statement; cited from earlier work
compound,measurement,value
"[Gd] [free form of Gd, gadolinium]",toxicity of the free form,quite toxic
